Measured values from patent US20070128217A1 (priority 2003, published 2007).

Legend:
[1] = tested on: antibodies in sera from SARS patients (sera 1a, 1b, 2, 6, 37, 62, London, SARS-yellow, SARS-green); format: binding, human; parameters: Binding of serum 6 to linear peptides of protein X1 of SARS-CoV Urbani / Binding of serum 37 to linear peptides of protein X1 of SARS-CoV Urbani / Binding of serum 6 to looped/cyclic peptide (PEPSCAN-ELISA) / Binding of serum 37 to looped/cyclic peptide (PEPSCAN-ELISA) / Binding of serum 37 to looped/cyclic peptides of protein X1 of SARS-CoV Urbani / Binding of serum 6 to linear peptides of protein X2 / Binding of serum 37 to linear peptides of protein X2 / Binding of serum 37 to looped/cyclic peptides of protein X2 of SARS-CoV Urbani / Binding of serum 6 to linear peptides of protein M of SARS-CoV Urbani / Binding of serum 37 to linear peptides of protein M of SARS-CoV Urbani / Binding of serum 6 to looped/cyclic peptides of protein M of SARS-CoV Urbani / Binding of serum 37 to looped/cyclic peptides of protein M of SARS-CoV Urbani / Binding of serum 6 to linear peptides of protein X3 of SARS-CoV Urbani / Binding of serum 37 to linear peptides of protein X3 of SARS-CoV Urbani / Binding of serum 37 to looped/cyclic peptides of protein X3 of SARS-CoV Urbani / Binding of serum 6 to linear peptides of protein X4 of SARS-CoV Urbani / Binding of serum 37 to linear peptides of protein X4 of SARS-CoV Urbani / Binding of serum 37 to looped/cyclic peptides of protein X4 of SARS-CoV Urbani / Binding of serum 6 to linear peptides of protein X5 of SARS-CoV Urbani / Binding of serum 37 to linear peptides of protein X5 of SARS-CoV Urbani / Binding of serum 37 to looped/cyclic peptides of protein X5 of SARS-CoV Urbani / Binding of serum 6 to linear peptides of protein N of SARS-CoV Urbani / Binding of serum 37 to linear peptides of protein N of SARS-CoV Urbani / Binding of serum 6 to linear peptide (PEPSCAN-ELISA) / Binding of serum 1a to looped/cyclic peptides of protein N of SARS-CoV Urbani / Binding of serum 1b to looped/cyclic peptides of protein N of SARS-CoV Urbani / Binding of serum 2 to looped/cyclic peptides of protein N of SARS-CoV Urbani / Binding of serum 6 to looped/cyclic peptides of protein N of SARS-CoV Urbani / Binding of serum 37 to looped/cyclic peptides of protein N of SARS-CoV Urbani / Binding of serum 62 to looped/cyclic peptides of protein N of SARS-CoV Urbani / Binding of serum London to looped/cyclic peptides of protein N of SARS-CoV Urbani / Binding of serum SARS-green to looped/cyclic peptides of protein N of SARS-CoV Urbani: unit not given here
[2] = tested on: rabbit serum obtained by immunizing a rabbit with the SARS-CoV strain Frankfurt 1; format: binding; parameters: Binding of a rabbit serum to linear peptides / Binding of a rabbit serum to looped peptides / Rabbit serum linear peptides / Rabbit serum looped peptides / Binding of a rabbit serum to linear peptides of protein N of SARS-CoV Urbani (Rabbit serum linear peptides) / Binding of a rabbit serum to looped/cyclic peptides of protein N of SARS-CoV Urbani (Rabbit serum looped peptides): unit not given here
[3] = tested on: control sera (pooled serum of ten healthy LUMC hospital workers; commercial negative donor pooled serum from the Dutch bloodbank); format: binding, human; parameters: Binding of Control serum LUMC to linear peptides / Binding of Control serum Blood-bank to linear peptides / Binding of Control serum LUMC to looped peptides / Binding of Control Serum Blood-Bank to Looped peptides / Binding of Control serum LUMC to linear peptides of the protein M of SARS-CoV Urbani / Binding of Control serum Blood-bank to linear peptides of the protein M of SARS-CoV Urbani / Binding of Control serum LUMC to looped peptides of the protein M of SARS-CoV Urbani / Binding of Control Serum Blood-Bank to Looped peptides of the protein M of SARS-CoV Urbani: unit not given here

Question: Which results are given for TNILLNVPLRGTIVT?
Answer: Binding of serum 1a to linear peptides of protein M of SARS-CoV Urbani [1]: 0.6; Binding of serum 1a to looped/cyclic peptides of protein M of SARS-CoV Urbani [1]: 0.6; Binding of serum 1b to linear peptides of protein M of SARS-CoV Urbani [1]: 0.5; Binding of serum 1b to looped/cyclic peptides of protein M of SARS-CoV Urbani [1]: 0.4; Binding of serum 2 to linear peptides of protein M of SARS-CoV Urbani [1]: 0.6; Binding of serum 2 to looped/cyclic peptides of protein M of SARS-CoV Urbani [1]: 0.6; Binding of serum 6 to linear peptides of protein M of SARS-CoV Urbani [1]: 0.4; Binding of serum 6 to looped/cyclic peptides of protein M of SARS-CoV Urbani [1]: 0.8; Binding of serum 37 to linear peptides of protein M of SARS-CoV Urbani [1]: 0.4; Binding of serum 37 to looped/cyclic peptides of protein M of SARS-CoV Urbani [1]: 0.7; Binding of serum 62 to linear peptides of protein M of SARS-CoV Urbani [1]: 0.5; Binding of serum 62 to looped/cyclic peptides of protein M of SARS-CoV Urbani [1]: 0.6; Binding of serum London to linear peptides of protein M of SARS-CoV Urbani [1]: 0.3; Binding of serum London to looped/cyclic peptides of protein M of SARS-CoV Urbani [1]: 0.2; Binding of serum SARS-green to linear peptides of protein M of SARS-CoV Urbani [1]: 0.5; Binding of serum SARS-green to looped/cyclic peptides of protein M of SARS-CoV Urbani [1]: 0.2; Binding of serum SARS-yellow to linear peptides of protein M of SARS-CoV Urbani [1]: 0.2; Binding of serum SARS-yellow to looped/cyclic peptides of protein M of SARS-CoV Urbani [1]: 0.4; Rabbit serum linear peptides [2]: 0.2; Rabbit serum looped peptides [2]: 0.1; Binding of Control Serum Blood-Bank to Looped peptides of the protein M of SARS-CoV Urbani [3]: 0.8; Binding of Control serum Blood-bank to linear peptides of the protein M of SARS-CoV Urbani [3]: 0.8; Binding of Control serum LUMC to linear peptides of the protein M of SARS-CoV Urbani [3]: 0.7; Binding of Control serum LUMC to looped peptides of the protein M of SARS-CoV Urbani [3]: 0.6

Question: How did the “Binding of serum 1a to linear peptides of protein X1 of SARS-CoV Urbani” value [1] turn out when TQITTDTGIENATFF was run?
Answer: 0.7

Question: What about the “Binding of serum 1a to looped/cyclic peptides of protein X1 of SARS-CoV Urbani” value [1] of the same sequence?
Answer: 0.5

Question: And the “Binding of serum 1b to linear peptides of protein X1 of SARS-CoV Urbani” value [1]?
Answer: 0.6

Question: What about the “Binding of serum 1b to looped/cyclic peptides of protein X1 of SARS-CoV Urbani” value [1] of the same sequence?
Answer: 0.3

Question: And the “Binding of serum 2 to linear peptides of protein X1 of SARS-CoV Urbani” value [1]?
Answer: 0.5

Question: What about the “Binding of serum 2 to looped/cyclic peptides of protein X1 of SARS-CoV Urbani” value [1] of the same sequence?
Answer: 0.2

Question: What about the “Binding of serum 6 to linear peptides of protein X1 of SARS-CoV Urbani” value [1] of the same sequence?
Answer: 0.6

Question: What about the “Binding of serum 6 to looped/cyclic peptides of protein X1 of SARS-CoV Urbani” value [1] of the same sequence?
Answer: 0.3

Question: What about the “Binding of serum 37 to linear peptides of protein X1 of SARS-CoV Urbani” value [1] of the same sequence?
Answer: 0.7

Question: And the “Binding of serum 37 to looped/cyclic peptides of protein X1 of SARS-CoV Urbani” value [1]?
Answer: 0.4

Question: And the “Binding of serum 62 to linear peptides of protein X1 of SARS-CoV Urbani” value [1]?
Answer: 0.5

Question: And the “Binding of serum 62 to looped/cyclic peptides of protein X1 of SARS-CoV Urbani” value [1]?
Answer: 0.5

Question: And the “Binding of serum London to linear peptides of protein X1 of SARS-CoV Urbani” value [1]?
Answer: 0.3

Question: And the “Binding of serum London to looped/cyclic peptides of protein X1 of SARS-CoV Urbani” value [1]?
Answer: 0.2

Question: And the “Binding of serum SARS-green to linear peptides of protein X1 of SARS-CoV Urbani” value [1]?
Answer: 0.7

Question: And the “Binding of serum SARS-green to looped/cyclic peptides of protein X1 of SARS-CoV Urbani” value [1]?
Answer: 0.3

Question: And the “Binding of serum SARS-yellow to linear peptides of protein X1 of SARS-CoV Urbani” value [1]?
Answer: 0.5

Question: What about the “Binding of serum SARS-yellow to looped/cyclic peptides of protein X1 of SARS-CoV Urbani” value [1] of the same sequence?
Answer: 0.4

Question: What about the “Binding of a rabbit serum to linear peptides” value [2] of the same sequence?
Answer: 0.1

Question: What about the “Binding of a rabbit serum to looped peptides” value [2] of the same sequence?
Answer: 0.6

Question: And the “Binding of Control Serum Blood-Bank to Looped peptides” value [3]?
Answer: 0.5

Question: What about the “Binding of Control serum Blood-bank to linear peptides” value [3] of the same sequence?
Answer: 0.6

Question: What about the “Binding of Control serum LUMC to linear peptides” value [3] of the same sequence?
Answer: 0.8

Question: What about the “Binding of Control serum LUMC to looped peptides” value [3] of the same sequence?
Answer: 0.5

Question: Which results are given for TQSTALQELLIQQWI?
Answer: Binding of serum 1a to linear peptides of protein X2 [1]: 0.7; Binding of serum 1a to looped/cyclic peptides of protein X2 of SARS-CoV Urbani [1]: 0.6; Binding of serum 1b to linear peptides of protein X2 [1]: 0.6; Binding of serum 1b to looped/cyclic peptides of protein X2 of SARS-CoV Urbani [1]: 0.5; Binding of serum 2 to linear peptides of protein X2 [1]: 0.3; Binding of serum 2 to looped/cyclic peptides of protein X2 of SARS-CoV Urbani [1]: 0.4; Binding of serum 6 to linear peptides of protein X2 [1]: 0.7; Binding of serum 6 to looped/cyclic peptides of protein X2 of SARS-CoV Urbani [1]: 0.2; Binding of serum 37 to linear peptides of protein X2 [1]: 0.6; Binding of serum 37 to looped/cyclic peptides of protein X2 of SARS-CoV Urbani [1]: 0.6; Binding of serum 62 to linear peptides of protein X2 [1]: 0.6; Binding of serum 62 to looped/cyclic peptides of protein X2 of SARS-CoV Urbani [1]: 0.6; Binding of serum London to linear peptides of protein X2 [1]: 0.7; Binding of serum London to looped/cyclic peptides of protein X2 of SARS-CoV Urbani [1]: 0.2; Binding of serum SARS-green to linear peptides of protein X2 [1]: 0.6; Binding of serum SARS-green to looped/cyclic peptides of protein X2 of SARS-CoV Urbani [1]: 0.5; Binding of serum SARS-yellow to linear peptides of protein X2 [1]: 0.7; Binding of serum SARS-yellow to looped/cyclic peptides of protein X2 of SARS-CoV Urbani [1]: 0.5; Binding of a rabbit serum to linear peptides [2]: 0.3; Binding of a rabbit serum to looped peptides [2]: 0.4; Binding of Control Serum Blood-Bank to Looped peptides [3]: 0.7; Binding of Control serum Blood-bank to linear peptides [3]: 0.8; Binding of Control serum LUMC to linear peptides [3]: 0.6; Binding of Control serum LUMC to looped peptides [3]: 0.6

Question: With TRPLMESELVIGAVI as the sequence, how does the “Binding of serum 1a to linear peptides of protein M of SARS-CoV Urbani” value [1] read?
Answer: 0.8

Question: And the “Binding of serum 1b to linear peptides of protein M of SARS-CoV Urbani” value [1]?
Answer: 0.7

Question: And the “Binding of serum 2 to linear peptides of protein M of SARS-CoV Urbani” value [1]?
Answer: 0.7

Question: And the “Binding of serum 6 to linear peptides of protein M of SARS-CoV Urbani” value [1]?
Answer: 0.6

Question: And the “Binding of serum 37 to linear peptides of protein M of SARS-CoV Urbani” value [1]?
Answer: 0.7

Question: What about the “Binding of serum 62 to linear peptides of protein M of SARS-CoV Urbani” value [1] of the same sequence?
Answer: 0.6

Question: What about the “Binding of serum London to linear peptides of protein M of SARS-CoV Urbani” value [1] of the same sequence?
Answer: 0.3

Question: And the “Binding of serum SARS-green to linear peptides of protein M of SARS-CoV Urbani” value [1]?
Answer: 0.8

Question: And the “Binding of serum SARS-yellow to linear peptides of protein M of SARS-CoV Urbani” value [1]?
Answer: 0.2

Question: What about the “Recognition of the peptide by sera of SARS-CoV infected individuals, and form (linear, looped/cyclic) in which it is recognized” value [1] of the same sequence?
Answer: recognized in looped/cyclic form

Question: And the “Rabbit serum linear peptides” value [2]?
Answer: 0.2

Question: What about the “Rabbit serum looped peptides” value [2] of the same sequence?
Answer: 0.3

Question: And the “Binding of Control Serum Blood-Bank to Looped peptides of the protein M of SARS-CoV Urbani” value [3]?
Answer: 1.1

Question: What about the “Binding of Control serum Blood-bank to linear peptides of the protein M of SARS-CoV Urbani” value [3] of the same sequence?
Answer: 0.9

Question: What about the “Binding of Control serum LUMC to linear peptides of the protein M of SARS-CoV Urbani” value [3] of the same sequence?
Answer: 1.0

Question: And the “Binding of Control serum LUMC to looped peptides of the protein M of SARS-CoV Urbani” value [3]?
Answer: 1.0
